In this experiment the target is T1, human PRMT1 (Homo sapiens, UniProt Q99873).
T1 construct: GST-tagged PRMT1; made in house; host or cells: High Five insect cells (baculovirus)
The experiment is described as follows: biochemical. The text has this:
General Materials. S-adenosylmethionine (SAM), S-adenosylhomocysteine (SAH), bicine, Tween20, dimethylsulfoxide (DMSO), bovine skin gelatin (BSG), and Tris(2-carboxyethyl)phosphine hydrochloride solution (TCEP) were purchased from Sigma-Aldrich at the highest level of purity possible. ^3H-SAM was purchase from American Radiolabeled Chemicals with a specific activity of 80 Ci/mmol. 384-well streptavidin Flashplates were purchased from PerkinElmer.
Substrates. Peptide representative of human histone H4 residues 36-50 was synthesized with an N-terminal linker-affinity tag motif and a C-terminal amide cap by 21st Century Biochemicals. The peptide was purified by high-performance liquid chromatography (HPLC) to greater than 95% purity and confirmed by liquid chromatography mass spectrometry (LC-MS). The sequence was Biot-Ahx-[…]-amide (SEQ ID NO.:1).
Molecular Biology: Full-length human PRMT1 isoform 1 (NM_001536.5) transcript clone was amplified from an HEK 293 cDNA library, incorporating flanking 5′ sequence encoding a FLAG tag ([…]) (SEQ ID NO.:2) fused directly to Met 1 of PRMT1. The amplified gene was subcloned into pFastBacI (Life Technologies) modified to encode an N-terminal GST tag and a TEV cleavage sequence
Protein Expression. Recombinant baculovirus were generated according to Bac-to-Bac kit instructions (Life Technologies). Protein over-expression was accomplished by infecting exponentially growing High Five insect cell culture at 1.5×10^6 cell/ml with 1:100 ratio of virus. Infections were carried out at 27° C. for 48 hours, harvested by centrifugation, and stored at −80° C. for purification.
Protein Purification. […] GST-tagged PRMT1 was eluted with 50 mM Tris, 2 mM glutathione, pH 7.8, dialysed in buffer A and concentrated to 1 mg/mL. The purity of recovered protein was 73%. Reference: Wasilko, D. J. and S. E. Lee: “TIPS: titerless infected-cells preservation and scale-up” Bioprocess J., 5 (2006), pp. 29-32.
General Procedure for PRMT1 Enzyme Assays on Peptide Substrates. The assays were all performed in a buffer consisting of 20 mM Bicine (pH=7.6), 1 mM TCEP, 0.005% BSG, and 0.002% Tween 20, prepared on the day of use. Compounds in 100% DMSO (1 ul) were spotted into a polypropylene 384-well V-bottom plates (Greiner) using a Platemate Plus outfitted with a 384-channel head (Thermo Scientific). DMSO (1 ul) was added to Columns 11, 12, 23, 24, rows A-H for the maximum signal control and 1 ul of SAH, a known product and inhibitor of PRMT1, was added to columns 11, 12, 23, 24, rows I-P for the minimum signal control. A cocktail (40 ul) containing the PRMT1 enzyme was added by Multidrop Combi (Thermo-Fisher). The compounds were allowed to incubate with PRMT1 for 30 min at room temperature, then a cocktail (10 ul) containing SAM and peptide was added to initiate the reaction (final volume=51 ul). The final concentrations of the components were as follows: PRMT1 was 0.5 nM, ^3H-SAM was 200 nM, non-radiolabeled SAM was 1.5 uM, peptide was 20 nM, SAH in the minimum signal control wells was 1 mM, and the DMSO concentration was 2%. The assays were stopped by the addition of non-radiolabeled SAM (10 ul) to a final concentration of 300 uM, which dilutes the ^3H-SAM to a level where its incorporation into the peptide substrate is no longer detectable. 50 ul of the reaction in the 384-well polypropylene plate was then transferred to a 384-well Flashplate and the biotinylated peptides were allowed to bind to the streptavidin surface for at least 1 hour before being washed once with 0.1% Tween20 in a Biotek EL×405 plate washer. The plates were then read in a PerkinElmer TopCount plate reader to measure the quantity of ^3H-labeled peptide bound to the Flashplate surface, measured as disintegrations per minute (dpm) or alternatively, referred to as counts per minute (cpm).
Where dpm=disintegrations per minute, cmpd=signal in assay well, and min and max are the respective minimum and maximum signal controls. […]

[1] abbreviates: biochemical evaluation, peptide substrate, read-out: PRMT1 IC50.
The mark [2] stands for this setting: single experiment or average of multiple experiments, read-out: PRMT1 biochemical evaluation (numerical).

Read-outs that look alike come from different tables or passages of the source.

T1 sequence (Q99873 other isoform, or with tags, fused parts or gaps): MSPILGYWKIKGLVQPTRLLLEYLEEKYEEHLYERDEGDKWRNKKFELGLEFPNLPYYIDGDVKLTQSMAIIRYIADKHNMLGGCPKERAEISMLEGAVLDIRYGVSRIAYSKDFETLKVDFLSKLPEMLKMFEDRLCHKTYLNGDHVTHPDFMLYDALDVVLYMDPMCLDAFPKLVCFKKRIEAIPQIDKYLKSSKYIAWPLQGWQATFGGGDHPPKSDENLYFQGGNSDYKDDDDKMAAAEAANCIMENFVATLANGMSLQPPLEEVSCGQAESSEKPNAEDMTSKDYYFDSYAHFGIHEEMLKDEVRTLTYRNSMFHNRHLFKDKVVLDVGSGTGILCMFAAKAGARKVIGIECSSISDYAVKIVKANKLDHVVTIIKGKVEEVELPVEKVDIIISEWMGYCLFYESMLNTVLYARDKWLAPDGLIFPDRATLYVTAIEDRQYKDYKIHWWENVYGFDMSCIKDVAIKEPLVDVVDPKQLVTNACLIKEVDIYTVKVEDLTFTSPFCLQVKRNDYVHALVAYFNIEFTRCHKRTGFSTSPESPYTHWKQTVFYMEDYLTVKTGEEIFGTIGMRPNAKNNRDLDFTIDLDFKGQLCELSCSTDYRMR

Take `CN(CCN)Cc1n[nH]c2ccc(OCc3ccccc3)cc12` [Compound 1B]: the IC50 under setting [1] is below 100 nM and the IC50 under setting [2] is 3.59 nM.
Taken in the same sequence, the figures for `CC(C)COc1ccc2[nH]nc(CN(C)CCN)c2c1` [Compound 2, N1-((5-iso-butoxy-1H-indazol-3-yl)methyl)-N1-methylethane-1,2-diamine] were below 100 nM and 21 nM.
The corresponding values for `CNCCN(C)Cc1nn(C)c2ccc(OCC(C)C)cc12` [Compound 3, N^1-((5-iso-butoxy-1-methyl-1H-indazol-3-yl)methyl)-N^1,N^2-dimethylethane-1,2-diamine] are below 100 nM and 56.2 nM.
The corresponding values for `CNCCN(C)Cc1n[nH]c2ccc(OCCOC)cc12` [Compound 5, N^1-((5-(2-methoxyethoxy)-1H-indazol-3-yl)methyl)-N^1,N^2-dimethylethane-1,2-diamine] are below 100 nM and 38.5 nM.
Regarding `CNCCN(C)Cc1n[nH]c2ccc(OCCCOC)cc12` [Compound 6], the IC50 is, setting by setting: under setting [1], below 100 nM; under setting [2], 19 nM.
As for `CNCCN(C)Cc1n[nH]c2ccc(OCCc3ccccc3)cc12` [Compound 7], the IC50 is, setting by setting: under setting [1], below 100 nM; under setting [2], 6.6 nM.
The corresponding values for `CNCCN(C)Cc1n[nH]c2ccc(OCCC(C)C)cc12` [Compound 8] are below 100 nM and 7.83 nM.
Taken in the same sequence, the figures for `CNCCN(C)Cc1n[nH]c2ccc(OC(C)Cc3ccccc3)cc12` (stereo not drawn) [Compound 9] were below 100 nM and 10.8 nM.
The corresponding values for `CNCCN(C)Cc1n[nH]c2ccc(Oc3ccccc3)cc12` [Compound 10, N^1,N^2-dimethyl-N^1-((5-phenoxy-1H-indazol-3-yl)methyl)ethane-1,2-diamine] are below 100 nM and 16.2 nM.
For `CNCCN(C)Cc1n[nH]c2ccc(OC3CCCC3)cc12` [Compound 11], the IC50 under setting [1] is below 100 nM and the IC50 under setting [2] was 3.3 nM.
The corresponding values for `CNCCN(C)Cc1n[nH]c2ccc(OCc3ccccn3)cc12` [Compound 12] are below 100 nM and 27.2 nM.
Taken in the same sequence, the figures for `CNCCN(C)Cc1n[nH]c2ccc(OCc3ccc(C#N)cc3)cc12` [Compound 13] were below 100 nM and 86.9 nM.
Taken in the same sequence, the figures for `CNCCN(C)Cc1n[nH]c2ccc(OCc3cccc(C#N)c3)cc12` [Compound 14] were below 100 nM and 23.3 nM.
For the molecule `CNCCN(C)Cc1n[nH]c2ccc(OCc3cc[nH]n3)cc12` [Compound 17], the IC50 runs as follows: under setting [1], below 100 nM; under setting [2], 51.7 nM.
The corresponding values for `CNCCN(C)Cc1n[nH]c2ccc(OC3CCCCC3)cc12` [Compound 18] are below 100 nM and 40.2 nM.
The corresponding values for `CNCCN(C)Cc1n[nH]c2ccc(OCC(C)c3ccccc3)cc12` (stereo not drawn) [Compound 19] are below 100 nM and 15.9 nM.
On to `CNCCN(C)Cc1n[nH]c2ccc(OCc3ccn(C)n3)cc12` [Compound 20], for which the IC50 is, setting by setting: under setting [1], below 100 nM; under setting [2], 6.33 nM.
Taken in the same sequence, the figures for `CNCCN(C)Cc1n[nH]c2cccc(OCc3ccccc3)c12` [Compound 21] were below 100 nM and 13.1 nM.
For `CNCCN(C)Cc1n[nH]c2ccc(Oc3cccc(OC)c3)cc12` [Compound 22], the IC50 reads like this: under setting [1], below 100 nM; under setting [2], 11.9 nM.
Taken in the same sequence, the figures for `CNCCN(C)Cc1n[nH]c2ccc(OCc3ccc(C(C)=O)cc3)cc12` [Compound 23] were below 100 nM and 12 nM.
The corresponding values for `CNCCN(C)Cc1n[nH]c2ccc(Oc3ccccc3OC)cc12` [Compound 24] are below 100 nM and 12.7 nM.
The corresponding values for `CNCCN(C)Cc1n[nH]c2ccc(OC3CCOC3)cc12` (stereo not drawn) [Compound 25, N^1,N^2-dimethyl-N^1-((5-((tetrahydrofuran-3-yl)oxy)-1H-indazol-3-yl)methyl)ethane-1,2-diamine] are at most 100 nM and 81.9 nM.
Turning to `CNCCN(C)Cc1n[nH]c2ccc(Oc3cccc(C)c3)cc12` [Compound 26], the IC50 is, setting by setting: under setting [1], below 100 nM; under setting [2], 44 nM.
Taken in the same sequence, the figures for `CNCCN(C)Cc1n[nH]c2ccc(Oc3cccc(Cl)c3)cc12` [Compound 27, N^1-((5-(3-chlorophenoxy)-1H-indazol-3-yl)methyl)-N^1,N^2-dimethylethane-1,2-diamine] were below 100 nM and 31.6 nM.
The corresponding values for `CNCCN(C)Cc1n[nH]c2ccc(Oc3cccc(C#N)c3)cc12` [Compound 28] are below 100 nM and 22.5 nM.
Taken in the same sequence, the figures for `CNCCN(C)Cc1n[nH]c2ccc(OC3CCOCC3)cc12` [Compound 29, N^1,N^2-dimethyl-N^1-((5-((tetrahydro-2H-pyran-4-yl)oxy)-1H-indazol-3-yl)methyl)ethane-1,2-diamine] were below 100 nM and 28.2 nM.
For `CNCCN(C)Cc1n[nH]c2ccc(Oc3ccccc3Cl)cc12` [Compound 30], the IC50 was below 100 nM under setting [1] and 64.5 nM under setting [2].
Taken in the same sequence, the figures for `CNCCN(C)Cc1n[nH]c2cccc(OCCC(C)C)c12` [Compound 31] were at most 100 nM and 46.5 nM.
Taken in the same sequence, the figures for `CNCCN(C)Cc1nn(C)c2ccc(OCc3ccc(C#N)cc3)cc12` [Compound 32] were 101 to 1000 nM and 73.9 nM.
As for `CNCCN(C)Cc1n[nH]c2ccc(OCc3ccn(CC(C)C)n3)cc12` [Compound 33], the IC50 by setting is: under setting [1], 101 to 1000 nM; under setting [2], 44.5 nM.
The corresponding values for `CNCCN(C)Cc1c2cc(OCc3ccc(C#N)cc3)ccc2nn1C(C)C` [Compound 34] are 3010 to 10000 nM and 182 nM.
The corresponding values for `CNCCN(C)Cc1n[nH]c2ccc(OC)cc12` [Compound 35] are 3010 to 10000 nM and 187 nM.
Taken in the same sequence, the figures for `CNCCN(C)Cc1n[nH]c2ccc(O)cc12` [Compound 36, 3-((methyl(2-(methylamino)ethyl)amino)methyl)-1H-indazol-5-ol] were 101 to 1000 nM and 6760 nM.
For the molecule `CNCCN(C)Cc1n[nH]c2ccc(Oc3ccc(C#N)cc3)cc12` [Compound 37], the IC50 reads like this: under setting [1], 1010 to 3000 nM; under setting [2], 6420 nM.
Taken in the same sequence, the figures for `CNCCN(C)Cc1nn(C2CCN(C(C)=O)CC2)c2ccc(OCc3ccc(C#N)cc3)cc12` [Compound 38] were 3010 to 10000 nM and 552 nM.
Regarding `CNCCN(C)Cc1n[nH]c2ccc(Oc3ccc(C(F)(F)F)cc3)cc12` [Compound 39], the IC50 under setting [1] is below 100 nM and the IC50 under setting [2] stood at 2270 nM.
Taken in the same sequence, the figures for `CNCCN(C)Cc1n[nH]c2cccc(OCCC(O)CO)c12` (stereo not drawn) [Compound 40] were 101 to 1000 nM and 3910 nM.
On to `CNCCN(C)Cc1n[nH]c2cccc(OCCCC(O)CO)c12` (stereo not drawn) [Compound 41, 5-((3-((methyl(2-(methylamino)ethyl)amino)methyl)-1H-indazol-4-yl)oxy)pentane-1,2-diol], for which the IC50 was 101 to 1000 nM under setting [1] and 67.6 nM under setting [2].
`CNCCN(C)Cc1n[nH]c2ccc(C(C)C)cc12` [Compound 42, N^1-((5-isopropyl-1H-indazol-3-yl)methyl)-N^1,N^2-dimethylethane-1,2-diamine]: the IC50 is at most 100 nM under setting [1] and 774 nM under setting [2].
